Among the data in patent publication US11180504B2 (ORCHID PHARMA LTD., priority 2016, dated 2021) are MIC values, retold here.

Each structure is given as a SMILES string. ≈ marks a conversion by molar mass, not a printed value.

The test system of experiment [1] is carbapenem sensitive Escherichia coli. Kind of experiment: MIC by broth micro-dilution (CLSI), carbapenem sensitive E. coli. The experiment is classed as cell-based. The conditions noted are these: Escherichia coli, ATCC25922, ESBL −ve E. coli ATCC25922; read-out: MIC. (In broth dilution the organism is exposed to a series of concentrations in liquid medium.)
The test system of experiment [2] is carbapenem sensitive Pseudomonas aeruginosa. As to the kind of experiment: MIC by broth micro-dilution (CLSI), carbapenem sensitive P. aeruginosa. The following applies: Pseudomonas aeruginosa, ATCC27853, Meropenem susceptible P. aeruginosa ATCC27853; read-out: MIC. The experiment is classed as cell-based.
Experiment [3] has as its system methicillin-sensitive Staphylococcus aureus. As to the kind of experiment: MIC by broth micro-dilution (CLSI), methicillin-sensitive S. aureus. The following applies: Staphylococcus aureus, ATCC 29213 / MSSA, MSSA S. aureus ATCC29213; read-out: MIC. The experiment is classed as cell-based.
Experiment [4] relates to carbapenemase producing K. pneumoniae. Kind of experiment: MIC by broth micro-dilution (CLSI), carbapenemase producing K. pneumoniae. The experiment is classed as cell-based, Klebsiella pneumoniae. The following applies: Klebsiella pneumoniae, ATCCBAA1705, KPC-2 K. pneumoniae ATCC BAA-1705; read-out: MIC.

By MIC is commonly meant the smallest concentration in the dilution series that meets the test's criterion for growth inhibition. On to `C[C@H]([C@H]1C(=O)N2C(C(=O)O)=C(S[C@@H]3CN[C@H](C(=O)N(C)C)C3)[C@H](C)[C@H]12)n1nnc(N)n1` [Example 326, (4R,5S,6S)-6-((R) - 1-(5-amino-2H-tetrazol-2-yl)ethyl)-3-((3S,5S)-5-(dimethylcarbamoyl)pyrrolidin-3-ylthio)-4-methyl-7-oxo-1-azabicyclo[3.2.0]hept-2-ene-2-carboxylic acid], for which the MIC is 1 µg/mL (≈ 2.22 µM) in experiment [1], 64 µg/mL (≈ 142 µM) in experiment [2], 2 µg/mL (≈ 4.44 µM) in experiment [3] and 16 µg/mL (≈ 35.5 µM) in experiment [4].

For the compound `C[C@H]([C@H]1C(=O)N2C(C(=O)O)=C(S[C@@H]3CN[C@H](C(=O)N4CC[C@@H](N)C4)C3)[C@H](C)[C@H]12)n1nnc(N)n1` [Example 327, (4R,5S,6S)-6-((R) - 1-(5-amino-2H-tetrazol-2-yl)ethyl)-3-((3S,5S)-5-((R)-3-aminopyrrolidine-1-carbonyl)pyrrolidin-3-ylthio)-4-methyl-7-oxo-1-azabicyclo[3.2.0]hept-2-ene-2-carboxylic acid], the minimum inhibitory concentration (MIC) was 2 µg/mL (≈ 4.07 µM) in experiment [1], 64 µg/mL (≈ 130 µM) in experiment [2], 1 µg/mL (≈ 2.03 µM) in experiment [3] and 32 µg/mL (≈ 65.1 µM) in experiment [4].

On to `C[C@H]([C@H]1C(=O)N2C(C(=O)O)=C(S[C@@H]3CN[C@H](C(=O)N4CC[C@@H](N)C4)C3)[C@H](C)[C@H]12)n1cnnn1` [Example 328, (4R,5S,6S)-6-((R) - 1-(1H-tetrazol-1-yl)ethyl)-3-((3S,5S)-5-((R)-3-aminopyrrolidine-1-carbonyl)pyrrolidin-3-ylthio)-4-methyl-7-oxo-1-azabicyclo[3.2.0]hept-2-ene-2-carboxylic acid], for which the MIC in experiment [1] amounted to 2 µg/mL (≈ 4.2 µM); in experiment [2] it was 32 µg/mL (≈ 67.1 µM); in experiment [3] it was 4 µg/mL (≈ 8.39 µM); in experiment [4], 4 µg/mL (≈ 8.39 µM).

In the case of `C[C@@H](NC(=O)Cn1cnnn1)[C@H]1C(=O)N2C(C(=O)O)=C(S[C@@H]3CN[C@H](C(=O)N4C[C@@H](N)[C@H](O)C4)C3)[C@H](C)[C@H]12` [Example 329, (4R,5S,6R)-6-((R) - 1-(2-(1H-tetrazol-1-yl)acetamido)ethyl)-3-((3S,5S)-5-((3R,4R)-3-amino-4-hydroxypyrrolidine-1-carbonyl)pyrrolidin-3-ylthio)-4-methyl-7-oxo-1-azabicyclo[3.2.0]hept-2-ene-2-carboxylic acid], the MIC stood at 0.25 µg/mL (≈ 0.455 µM) in experiment [1], 8 µg/mL (≈ 14.6 µM) in experiment [2], 8 µg/mL (≈ 14.6 µM) in experiment [3] and 2 µg/mL (≈ 3.64 µM) in experiment [4].

For the compound `Cc1nnnn1CC(=O)N[C@H](C)[C@H]1C(=O)N2C(C(=O)O)=C(S[C@@H]3CN[C@H](C(=O)N(C)C)C3)[C@H](C)[C@H]12` [Example 330, (4R,5S,6R)-3-((3S,5S)-5-(dimethylcarbamoyl)pyrrolidin-3-ylthio)-4-methyl-6-((R) - 1-(2-(5-methyl-1H-tetrazol-1-yl)acetamido)ethyl)-7-oxo-1-azabicyclo[3.2.0]hept-2-ene-2-carboxylic acid], the MIC in experiment [1] is 0.25 µg/mL (≈ 0.493 µM); in experiment [2], 64 µg/mL (≈ 126 µM); in experiment [3] it was 8 µg/mL (≈ 15.8 µM); in experiment [4] it was 2 µg/mL (≈ 3.95 µM).

For `Cc1nnnn1CC(=O)N[C@H](C)[C@H]1C(=O)N2C(C(=O)O)=C(S[C@@H]3CN[C@H](C(=O)N4CC[C@@H](N)C4)C3)[C@H](C)[C@H]12` [Example 331, (4R,5S,6R)-3-((3S,5S)-5-((R)-3-aminopyrrolidine-1-carbonyl)pyrrolidin-3-ylthio)-4-methyl-6-((R) - 1-(2-(5-methyl-1H-tetrazal-1-yl)acetamido)ethyl)-7-oxo-1-azabicyclo[3.2.0]hept-2-ene-2-carboxylic acid], the MIC stood at 0.25 µg/mL (≈ 0.457 µM) in experiment [1], 8 µg/mL (≈ 14.6 µM) in experiment [2], 4 µg/mL (≈ 7.3 µM) in experiment [3] and 4 µg/mL (≈ 7.3 µM) in experiment [4].

For the compound `C[C@@H](NC(=O)Cn1cnnn1)[C@H]1C(=O)N2C(C(=O)O)=C(S[C@@H]3CN[C@H](C(=O)N4CCC(C)(N)CC4)C3)[C@H](C)[C@H]12` [Example 332, (4R,5S,6R)-6-((R) - 1-(2-(1H-tetrazol-1-yl)acetamido)ethyl)-3-((3S,5S)-5-(4-amino-4-methylpiperidine-1-carbonyl)pyrrolidin-3-ylthio)-4-methyl-7-oxo-1-azabicyclo[3.2.0]hept-2-ene-2-carboxylic acid], the MIC in experiment [1] was found to be 1 µg/mL (≈ 1.78 µM); in experiment [2], 8 µg/mL (≈ 14.2 µM); in experiment [3], 8 µg/mL (≈ 14.2 µM); in experiment [4], 4 µg/mL (≈ 7.12 µM).

For `C[C@@H](NC(=O)Cn1cnnn1)[C@H]1C(=O)N2C(C(=O)O)=C(S[C@@H]3CN[C@H](C(=O)N4CC5C(N)C5C4)C3)[C@H](C)[C@H]12` (stereo partly drawn) [Example 333, (4R,5S,6R)-6-((R) - 1-(2-(1H-tetrazol-1-yl)acetamido)ethyl)-3-((3S,5S)-5-(6-amino-3-azabicyclo[3.1.0]hexane-3-carbonyl)pyrrolidin-3-ylthin)-4-methyl-7-oxo-1-azabicyclo[3.2.0]hept-2-ene-2-carboxylic acid], the MIC in experiment [1] was 0.5 µg/mL (≈ 0.916 µM); in experiment [2], 4 µg/mL (≈ 7.33 µM); in experiment [3] it was 8 µg/mL (≈ 14.7 µM); in experiment [4] it was 4 µg/mL (≈ 7.33 µM).

`C[C@@H](NC(=O)Cn1nnc(C(F)(F)F)n1)[C@H]1C(=O)N2C(C(=O)O)=C(S[C@@H]3CN[C@H](C(=O)N4CC[C@@H](N)C4)C3)[C@H](C)[C@H]12` [Example 334, (4R,5S,6R)-3-((3S,5S)-5-((R)-3-aminopyrrolidine-1-carbonyl)pyrrolidin-3-ylthio)-4-methyl-7-oxo-6-((R) - 1-(2-(5-(trifluoromethyl)-2H-tetrazol-2-yl)acetamido)ethyl) - 1-azabicyclo[3.2.0]hept-2-ene-2-carboxylic acid]: the MIC in experiment [1] was determined as 0.5 µg/mL (≈ 0.831 µM); in experiment [2] it was 128 µg/mL (≈ 213 µM); in experiment [3], 4 µg/mL (≈ 6.65 µM); in experiment [4], 32 µg/mL (≈ 53.2 µM).

As to `C[C@@H](NC(=O)Cn1nnc(C(F)(F)F)n1)[C@H]1C(=O)N2C(C(=O)O)=C(S[C@@H]3CN[C@H](C(=O)N(C)C)C3)[C@H](C)[C@H]12` [Example 335, (4R,5S,4R)-3-((3S,5S)-5-(dimethylcarbamoyl)pyrrolidin-3-ylthio)-4-methyl-7-oxo-6-((R) - 1-(2-(5-(trifluoromethyl)-2H-tetrazol-2-yl)acetamido)ethyl) - 1-azabicyclo[3.2.0]hept-2-ene-2-carboxylic acid], the MIC in experiment [1] was 1 µg/mL (≈ 1.78 µM); in experiment [2] it was more than 128 µg/mL; in experiment [3] it was 4 µg/mL (≈ 7.14 µM); in experiment [4], 64 µg/mL (≈ 114 µM).

As to `C[C@@H](NC(=O)Cn1cnnn1)[C@H]1C(=O)N2C(C(=O)O)=C(S[C@@H]3CN[C@H](C(=O)N4CCC[C@@H](N)C4)C3)[C@H](C)[C@H]12` [Example 336, (4R,5S,6R)-6-((R) - 1-(2-(1H-tetrazol-1-yl)acetamido)ethyl)-3-((3S,5S)-5-((R)-3-aminopiperidine-1-carbonyl)pyrrolidin-3-ylthio)-4-methyl-7-oxo-1-azabicyclo[3.2.0]hept-2-ene-2-carboxylic acid], the MIC amounted to 1 µg/mL (≈ 1.83 µM) in experiment [1], 8 µg/mL (≈ 14.6 µM) in experiment [2], 4 µg/mL (≈ 7.3 µM) in experiment [3] and 4 µg/mL (≈ 7.3 µM) in experiment [4].

For the compound `C[C@@H]1C(S[C@@H]2CN[C@H](C(=O)N(C)C)C2)=C(C(=O)O)N2C(=O)[C@H]([C@@H](C)NC(=O)C(F)F)[C@@H]12` [Example 337, (4S,5S,6R)-6-((R) - 1-(2,2-difluoroacetamido)ethyl)-3-((3S,5S)-5-(dimethylcarbamoyl)pyrrolidin-3-ylthio)-4-methyl-7-oxo-1-azabicyclo[3.2.0]hept-2-ene-2-carboxylic acid], the MIC came out at 0.5 µg/mL (≈ 1.09 µM) in experiment [1], 32 µg/mL (≈ 69.5 µM) in experiment [2], 2 µg/mL (≈ 4.34 µM) in experiment [3] and 1 µg/mL (≈ 2.17 µM) in experiment [4].

On to `CCOC(=O)c1nnnn1CC(=O)N[C@H](C)[C@H]1C(=O)N2C(C(=O)O)=C(S[C@@H]3CN[C@H](C(=O)N(C)C)C3)[C@H](C)[C@H]12` [Example 338, (4R,5S,6R)-3-((3S,5S)-5-(dimethylcarbamoyl)pyrrolidin-3-ylthio)-6-((R) - 1-(2-(5-(ethoxycarbonyl) - 1H-tetrazol-1-yl)acetamido)ethyl)-4-methyl-7-oxo-1-azabicyclo[3.2.0]hept-2-ene-2-carboxylic acid], for which the MIC is 2 µg/mL (≈ 3.54 µM) in experiment [1], 128 µg/mL (≈ 227 µM) in experiment [2], 8 µg/mL (≈ 14.2 µM) in experiment [3] and 32 µg/mL (≈ 56.7 µM) in experiment [4].

As for `CCOC(=O)c1nnnn1CC(=O)N[C@H](C)[C@H]1C(=O)N2C(C(=O)O)=C(S[C@@H]3CN[C@H](C(=O)N4CC[C@@H](N)C4)C3)[C@H](C)[C@H]12` [Example 339, (4R,5S,6R)-3-((3S,5S)-5-((R)-3-aminopyrrolidine-1-carbonyl)pyrrolidin-3-ylthio)-6-((R) - 1-(2-(5-(ethoxycarbonyl) - 1H-tetrazol-1-yl)acetamido)ethyl)-4-methyl-7-oxo-1-azabicyclo[3.2.0]bept-2-ene-2-carboxylic acid], the MIC was determined as 1 µg/mL (≈ 1.65 µM) in experiment [1], 32 µg/mL (≈ 52.8 µM) in experiment [2], 8 µg/mL (≈ 13.2 µM) in experiment [3] and 32 µg/mL (≈ 52.8 µM) in experiment [4].

As for `C[C@@H](NC(=O)Cn1cnnn1)[C@H]1C(=O)N2C(C(=O)O)=C(S[C@@H]3CN[C@H](C(=O)N4CCC(N)CC4)C3)[C@H](C)[C@H]12` [Example 340, (4R,5S,6R)-6-((R) - 1-(2-(1H-tetrazol-1-yl)acetamido)ethyl)-3-((3S,5S)-5-(4-aminopiperidine-1-carbonyl)pyrrolidin-3-ylthio)-4-methyl-7-oxo-1-azabicyclo[3.2.0]hept-2-ene-2-carboxylic acid], the MIC in experiment [1] was 1 µg/mL (≈ 1.83 µM); in experiment [2], 4 µg/mL (≈ 7.3 µM); in experiment [3], 8 µg/mL (≈ 14.6 µM); in experiment [4] it was 4 µg/mL (≈ 7.3 µM).
